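A five-concentration, 48-hour dose response in 96-well plates underlies each endpoint, interpolated linearly between surrounding concentrations. Here, GI50 denotes the concentration required for 50% inhibition of growth.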 Activity calls are given as the source filed them. Cut-off read from the data, not from the text of the source: active = GI50 up to about 1.1 µM and inactive = higher.
Experiments:
Test in all cases: growth of human tumour cells (NCI), 48 h
SNB-75 = test system: SNB-75
786-0 = test system: 786-0
BT-549 = test system: BT-549
ACHN = test system: ACHN
EKVX = test system: EKVX
SF-295 = test system: SF-295
SR = test system: SR
UACC-62 = test system: UACC-62
M14 = test system: M14
RPMI-8226 = test system: RPMI-8226
SF-268 = test system: SF-268
HT-29 = test system: HT-29
OVCAR-4 = test system: OVCAR-4
NCI-H522 = test system: NCI-H522
OVCAR-5 = test system: OVCAR-5
HOP-92 = test system: HOP-92

Measured: GI50

CCCCCCCC(=O)NS(=O)(=O)c1ccccc1
inactive: SNB-75 > 100 µM | 786-0 > 100 µM | BT-549 > 100 µM | ACHN > 100 µM | EKVX > 100 µM | SF-295 > 100 µM | SR > 100 µM | UACC-62 > 100 µM | M14 77.1 µM | RPMI-8226 > 100 µM | SF-268 > 100 µM | HT-29 > 100 µM | OVCAR-4 > 100 µM | NCI-H522 73.3 µM

COc1ccc2c(C)c(Oc3c(Cl)c(Cl)c(O)c(C#N)c3C#N)oc2c1
inactive: SNB-75 > 100 µM | 786-0 > 100 µM | BT-549 > 100 µM | ACHN > 100 µM | OVCAR-5 > 100 µM | EKVX > 100 µM | SF-295 > 100 µM | SR > 100 µM | UACC-62 > 100 µM | M14 > 100 µM | RPMI-8226 > 100 µM | SF-268 > 100 µM | HT-29 > 100 µM | OVCAR-4 > 100 µM | NCI-H522 > 100 µM

Oc1ccc(-c2nc(-c3ccc4ccccc4n3)c(-c3ccc(F)cc3)[nH]2)cc1
inactive: SNB-75 21.6 µM | 786-0 15.2 µM | BT-549 17.7 µM | ACHN 12.3 µM | OVCAR-5 15.9 µM | EKVX 17.8 µM | SF-295 10.4 µM | SR 6.25 µM | UACC-62 11.5 µM | M14 11 µM | RPMI-8226 5.62 µM | SF-268 13 µM | HT-29 7.55 µM | OVCAR-4 11.2 µM

CCCOC(=O)C1C2CCC(O2)C1C(=O)O (stereo not given)
inactive: SNB-75 36.3 µM | 786-0 > 100 µM | BT-549 > 100 µM | ACHN > 100 µM | OVCAR-5 > 100 µM | EKVX > 100 µM | SF-295 > 100 µM | SR > 100 µM | UACC-62 > 100 µM | M14 > 100 µM | RPMI-8226 > 100 µM | SF-268 > 100 µM | HT-29 > 100 µM | OVCAR-4 > 100 µM | NCI-H522 > 100 µM

CC(C)CCCC(C)[C@H]1CCC2[C@@H]3CCC4Cc5nc6c(nc5C[C@]4(C)C3CC[C@@]21C)CC1CC[C@@H]2C(CC[C@@]3(C)C2CC[C@@H]3C(C)CCCC(C)C)[C@@]1(C)C6 (stereo not given in full)
inactive: SNB-75 38.8 µM | 786-0 > 100 µM | BT-549 > 100 µM | ACHN > 100 µM | OVCAR-5 > 100 µM | EKVX > 100 µM | SF-295 > 100 µM | SR > 100 µM | UACC-62 > 100 µM | M14 > 100 µM | RPMI-8226 > 100 µM | SF-268 > 100 µM | HT-29 > 100 µM | HOP-92 > 100 µM | OVCAR-4 > 100 µM

CCN(CC)C(=O)N1CN(c2ccccc2)C2(CCN(CCCC3(c4ccc(F)cc4)OCCO3)CC2)C1=O
inactive: SNB-75 19.7 µM | 786-0 18.6 µM | BT-549 12.5 µM | ACHN > 10 µM | OVCAR-5 > 10 µM | EKVX 25.9 µM | SF-295 25.4 µM | SR 11.6 µM | UACC-62 17.4 µM | M14 40.2 µM | RPMI-8226 12.9 µM | SF-268 20.6 µM | OVCAR-4 22.4 µM | NCI-H522 13.7 µM

CCOC(=O)c1c(CN2CCOCC2)n(Cc2ccccc2)c2c1cc(O)c1nc(C)c(C)nc12
inactive: SNB-75 9.98 µM | 786-0 27.7 µM | BT-549 11.5 µM | ACHN 28.6 µM | OVCAR-5 > 100 µM | EKVX > 100 µM | SF-295 56.5 µM | SR 44 µM | UACC-62 38.7 µM | M14 > 100 µM | RPMI-8226 30.3 µM | SF-268 21.8 µM | HT-29 > 100 µM | OVCAR-4 47.8 µM

N#C/N=C1/c2ccccc2/C(=N/C#N)c2cc(CO)ccc21
inactive: SNB-75 24.2 µM | 786-0 36.8 µM | BT-549 18 µM | ACHN 24.7 µM | OVCAR-5 50.9 µM | EKVX 27.7 µM | SF-295 32.6 µM | SR 17 µM | M14 48.2 µM | RPMI-8226 2.95 µM | SF-268 39.2 µM | HT-29 26.7 µM | HOP-92 24.8 µM | OVCAR-4 48.1 µM | NCI-H522 39 µM

CCCSc1ccc2[nH]c(N3C(=O)/C(=C/c4ccco4)N=C3c3ccccc3)cc2c1
inactive: SNB-75 44 µM | 786-0 23.7 µM | BT-549 32.7 µM | ACHN 38.8 µM | OVCAR-5 > 50 µM | EKVX 16.9 µM | SR 7.26 µM | UACC-62 23.3 µM | M14 21.6 µM | RPMI-8226 16.7 µM | SF-268 33 µM | HT-29 21.3 µM | HOP-92 > 50 µM | NCI-H522 13.2 µM

— ChEMBL document CHEMBL1201862, “PubChem BioAssay data set” (2004)
